Measured values published in the supplement of paper PMC10307832.

Legend:
Assay in all cases: relative viability (nuclei count vs DMSO), 5 days (fraction); higher = more cells survive
Wnt-C59 + Tozasertib = compound: CC1=NC=CC(=C1)C2=CC=C(C=C2)CC(=O)NC3=CC=C(C=C3)C4=CN=CC=C4 [Wnt-C59] + Cc1cc(Nc2cc(N3CCN(C)CC3)nc(Sc3ccc(NC(=O)C4CC4)cc3)n2)n[nH]1 [Tozasertib] (partner 0.1 µM)
In short: (§1)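 Five library-drug doses in √10 steps were combined with a fixed anchor-drug dose, or a single drug was given alone, by pin tool to lung cancer cell lines in 1536-well plates the day after seeding. Nuclei were stained and counted after 5 days. Relative viability is the nuclei count in treated wells over that in vehicle wells, taken as the median of duplicate plates.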

Wnt-C59 + Dasatinib = compound: CC1=NC=CC(=C1)C2=CC=C(C=C2)CC(=O)NC3=CC=C(C=C3)C4=CN=CC=C4 [Wnt-C59] + Cc1nc(Nc2ncc(C(=O)Nc3c(C)cccc3Cl)s2)cc(N2CCN(CCO)CC2)n1 [Dasatinib] (partner 0.075 µM)
In short: as §1

Lapatinib + Foretinib = compound: CS(=O)(=O)CCNCc1ccc(-c2ccc3ncnc(Nc4ccc(OCc5cccc(F)c5)c(Cl)c4)c3c2)o1 [Lapatinib] + COc1cc2c(Oc3ccc(NC(=O)C4(C(=O)Nc5ccc(F)cc5)CC4)cc3F)ccnc2cc1OCCCN1CCOCC1 [Foretinib] (partner 0.25 µM)
In short: as §1

Lapatinib + Pictilisib = compound: CS(=O)(=O)CCNCc1ccc(-c2ccc3ncnc(Nc4ccc(OCc5cccc(F)c5)c(Cl)c4)c3c2)o1 [Lapatinib] + CS(=O)(=O)N1CCN(Cc2cc3nc(-c4cccc5[nH]ncc45)nc(N4CCOCC4)c3s2)CC1 [Pictilisib] (partner 1 µM)
In short: as §1

| Cell Line | relative viability (Wnt-C59 + Tozasertib; first compound 0.001 µM) | relative viability (Wnt-C59 + Tozasertib; first compound 0.01 µM) | relative viability (Wnt-C59 + Tozasertib; first compound 0.03162 µM) | relative viability (Wnt-C59 + Tozasertib; first compound 0.1 µM) | relative viability (Wnt-C59 + Dasatinib; first compound 0.001 µM) | relative viability (Wnt-C59 + Dasatinib; first compound 0.01 µM) | relative viability (Wnt-C59 + Dasatinib; first compound 0.03162 µM) | relative viability (Wnt-C59 + Dasatinib; first compound 0.1 µM) | relative viability (Lapatinib + Foretinib; first compound 0.06325 µM) | relative viability (Lapatinib + Foretinib; first compound 0.2 µM) | relative viability (Lapatinib + Foretinib; first compound 0.6325 µM) | relative viability (Lapatinib + Foretinib; first compound 2 µM) | relative viability (Lapatinib + Pictilisib; first compound 0.06325 µM) | relative viability (Lapatinib + Pictilisib; first compound 0.2 µM) | relative viability (Lapatinib + Pictilisib; first compound 0.6325 µM) | relative viability (Lapatinib + Pictilisib; first compound 2 µM) | relative viability (Lapatinib + Foretinib; first compound 0.02 µM) | relative viability (Lapatinib + Pictilisib; first compound 0.02 µM) |
| --- | --- | --- | --- | --- | --- | --- | --- | --- | --- | --- | --- | --- | --- | --- | --- | --- | --- | --- |
| NCI-H522 | 0.63 | 0.566 | 0.578 | 0.651 | 0.92 | 0.752 | 0.875 | 0.882 |  |  |  |  |  |  |  |  |  |  |
| NCI-H650 | 0.734 | 0.748 | 0.802 | 0.729 | 0.43 | 0.512 | 0.457 | 0.526 | 0.94 | 0.989 | 1.06 | 0.979 | 0.918 | 0.888 | 0.782 | 1.04 |  |  |
| NCI-H460 | 0.465 | 0.0488 | 0.555 | 0.48 | 0.482 | 0.483 | 0.524 | 0.531 | 1 | 0.998 | 0.966 | 0.69 | 0.276 | 0.303 | 0.355 | 0.251 | 0.923 | 0.057 |
| HCC-827 | 0.45 | 0.427 | 0.374 | 0.443 | 0.386 | 0.305 | 0.366 | 0.428 | 0.974 | 1.05 | 0.97 | 0.155 | 1.13 | 0.891 | 1.02 | 0.574 | 1.08 | 0.947 |
| NCI-H647 | 0.448 | 0.27 | 0.167 | 0.179 | 0.193 | 0.166 | 0.2 | 0.152 | 1.16 | 1.22 | 1.01 | 1.2 | 0.435 |  | 0.364 | 0.431 | 1.06 |  |
| SW 1573 | 0.144 | 0.196 | 0.342 | 0.167 | 0.557 | 0.699 | 0.67 | 0.314 | 0.601 | 0.86 | 0.922 | 0.886 | 0.444 | 0.61 | 0.452 | 0.533 | 1.04 | 0.471 |
| NCI-H2170 | 0.721 | 0.641 | 0.852 | 0.602 | 0.549 | 0.354 | 0.601 | 0.555 | 0.961 | 0.784 | 0.655 | 0.25 | 0.207 | 0.275 | 0.244 | 0.237 | 1.05 | 0.281 |
| NCI-H358 | 0.108 | 0.0976 | 0.108 | 0.0887 | 0.177 | 0.154 | 0.145 | 0.152 | 0.33 | 0.422 | 0.317 | 0.17 |  | 0.301 | 0.304 | 0.309 | 0.613 | 0.334 |
| COR-L 105 | 0.297 | 0.332 | 0.371 | 0.437 | 0.275 | 0.357 | 0.308 | 0.304 | 0.928 | 0.689 | 0.491 | 0.582 | 0.329 | 0.35 | 0.419 | 0.307 | 0.987 | 0.33 |
| HCC-44 | 1.12 | 0.909 | 0.976 | 0.864 |  |  |  |  |  |  |  |  | 1.03 | 0.66 | 0.654 | 0.421 |  | 0.606 |
| SW 900 | 0.538 | 0.502 | 0.557 | 0.589 | 0.545 | 0.708 | 0.768 | 0.624 | 0.808 | 0.659 | 0.781 | 0.734 |  |  |  |  |  |  |
| NCI-H2342 | 0.643 | 0.416 | 0.53 | 0.624 | 0.326 | 0.326 | 0.358 | 0.337 | 1.01 | 0.946 | 0.975 | 0.712 |  |  |  |  | 1.09 |  |
| NCI-H1299 |  |  |  |  |  |  |  |  | 0.885 | 1.12 | 1.1 | 1.05 | 0.768 | 0.859 | 0.801 | 0.803 | 1.1 | 0.871 |
| NCI-H1792 |  |  |  |  | 0.753 | 0.771 | 0.992 | 0.718 |  |  |  |  | 0.236 | 0.294 | 0.302 | 0.123 |  | 0.292 |
| NCI-H1623 | 0.426 | 0.401 | 0.415 | 0.434 | 0.507 | 0.488 | 0.572 | 0.625 | 0.637 | 0.634 | 0.785 | 0.277 |  |  |  |  | 0.702 |  |
| Calu-6 |  |  |  |  |  |  |  |  | 0.852 | 0.862 | 0.878 | 0.904 | 0.838 | 0.958 | 1.08 | 0.978 | 0.86 | 0.865 |
| A549 |  |  |  |  |  |  |  |  | 0.872 | 1.04 | 0.918 | 0.877 | 0.401 | 0.468 | 0.456 | 0.506 | 0.952 | 0.477 |
| NCI-H1703 |  |  |  |  |  |  |  |  | 0.347 | 0.296 | 0.299 | 0.388 | 0.213 | 0.228 | 0.32 | 0.275 | 0.305 | 0.231 |
| NCI-H1563 |  |  |  |  | 0.456 | 0.509 | 0.475 | 0.468 | 0.881 | 0.953 | 0.831 | 0.857 | 0.643 | 0.6 | 0.725 | 0.693 | 0.861 | 0.592 |
| IA-LM |  |  |  |  |  |  |  |  | 1.13 | 1.36 | 1.03 | 1.16 | 0.297 | 0.223 | 0.21 | 0.222 | 1.08 | 0.227 |
| EBC-1 |  |  |  |  |  |  |  |  | 0.0941 | 0.0867 | 0.108 | 0.0963 | 0.368 | 0.364 | 0.386 | 0.256 | 0.113 | 0.467 |
| NCI-H1648 | 0.581 | 0.611 | 0.364 | 0.524 |  |  |  |  |  |  |  |  |  |  |  |  |  |  |
